Laboratory results as given in patent US7332312B2, “Carbonyl reductase, gene thereof and use of the same” (priority 2002, dated 2008).

Tested on: reductase RRG
Assay: Substrate specificity of RRG: reducing activity against various carbonyl compounds
Assay type: biochemical, Rhodotorula glutinis var. dairenensis IFO 0415
[1] = relative to reducing activity with 2-chloro-1-(3′-chlorophenyl)ethanone taken as 100%, substrate 1 mM, NADPH 0.25 mM, pH 6.5, 30° C.

`CCC=O` [propionaldehyde] was tested, and the “% Activity” value [1] was 4%.
`CCOC(=O)CC(=O)CO` [ethyl 4-hydroxyacetoacetate] was tested, and the “% Activity” value [1] was 22%.
With `CCOC(=O)CC(=O)CBr` [ethyl 4-bromoacetoacetate] the “% Activity” value [1] was 33%.
`COC(=O)CC(=O)CCl` [methyl 4-chloroacetoacetate] was tested, and the “% Activity” value [1] was 81%.
With `CCC(=O)C(=O)O` [2-keto-n-butyric acid] the “% Activity” value [1] was 7%.
`CC(=O)c1cccc(O)c1` [m-hydroxyacetophenone] was tested, and the “% Activity” value [1] was 16%.
For `O=Cc1ccc(Cl)cc1` [p-chlorobenzaldehyde], the “% Activity” value [1] was 11%.
`CCCCCCC(=O)C(=O)OC` [methyl 2-oxooctanoate] was tested, and the “% Activity” value [1] was 3%.
For `COC(=O)CC(C)=O` [methyl acetoacetate], the “% Activity” value [1] was 14%.
In the case of `CCOC(=O)C1CCC(=O)C1` (stereo not drawn) [ethyl 3-oxocyclopentanecarboxylate], the “% Activity” value [1] is reported as 32%.
`O=CC(O)CO` (racemic) [DL-glyceraldehyde] was tested, and the “% Activity” value [1] was 1%.
With `O=C1COC(=O)C1` [tetrahydrofuran-2,4-dione] the “% Activity” value [1] was 14%.
`CCOC(=O)C(C)=O` [ethly pyruvate] was tested, and the “% Activity” value [1] was 247%.
methyl 2-eteneacetoacetate was tested, and the “% Activity” value [1] was 5%.
For `O=Cc1ccccn1` [2-pyridinecarbaldehyde], the “% Activity” value [1] was 45%.
In the case of `CCOC(=O)C(C)C(C)=O` (stereo not drawn) [ethyl 2-methylacetoacetate], the “% Activity” value [1] is reported as 12%.
In the case of `O=CCCCC=O` [glutaraldehyde], the “% Activity” value [1] is reported as 2%.
With `CCCCC(C)=O` [2-hexanone] the “% Activity” value [1] was 13%.
In the case of `CC(=O)CO` [hydroxyacetone], the “% Activity” value [1] is reported as 16%.
In the case of `CCOC(=O)CC(=O)CN=[N+]=[N-]` [ethyl 4-azideacetoacetate], the “% Activity” value [1] is reported as 11%.
For `CC(=O)c1cccnc1` [3-acetylpyridine], the “% Activity” value [1] was 28%.
For `CCOC(=O)CC(=O)c1ccccc1` [ethyl benzoylylacetate], the “% Activity” value [1] was 15%.
With `CCC(=O)c1ccccc1` [propiophenone] the “% Activity” value [1] was 14%.
`CC(=O)c1ccccn1` [2-acetylpyridine] was tested, and the “% Activity” value [1] was 60%.
`CC(=O)CCC(=O)O` [levulinic acid] was tested, and the “% Activity” value [1] was 31%.
`CC(=O)CC(C)=O` [acetylacetone] was tested, and the “% Activity” value [1] was 23%.
In the case of `O=C(c1ccccc1)C(O)c1ccccc1` (stereo not drawn) [benzoin], the “% Activity” value [1] is reported as 9%.
For `CC(=O)c1cccc([N+](=O)[O-])c1` [m-nitroacetophenone], the “% Activity” value [1] was 35%.
With `CCOC(=O)CC(=O)COCc1ccccc1` [ethyl 4-benzyloxyacetoacetate] the “% Activity” value [1] was 58%.
With `CCC(=O)Cc1ccccc1` [1-phenyl-2-butanone] the “% Activity” value [1] was 20%.
For `CC(=O)C=O` [methyl glyoxal], the “% Activity” value [1] was 13%.
For `CCOC(=O)CC(=O)COC(C)=O` [ethyl 4-acetoxyacetoacetate], the “% Activity” value [1] was 46%.
`O=Cc1cccc([N+](=O)[O-])c1` [m-nitrobenzaldehyde] was tested, and the “% Activity” value [1] was 64%.
With `O=CCCc1ccccc1` [3-phenylpropionaldehyde] the “% Activity” value [1] was 10%.
With `CCC(=O)CC` [diethyl ketone] the “% Activity” value [1] was 17%.
`CC1(C)COC(=O)C1=O` [dihydro-4,4-dimethyl-furandio] was tested, and the “% Activity” value [1] was 238%.
In the case of `COC(=O)C1CCCC1=O` (stereo not drawn) [methyl 2-oxocyclopentanecarboxylate, methyl 2-oxocyclopentane carboxylate], the “% Activity” value [1] is reported as 11%.
With `CC(=O)c1ccncc1` [4-acetylpyridine] the “% Activity” value [1] was 44%.
In the case of `CCCC(C)=O` [methyl n-propylketone], the “% Activity” value [1] is reported as 12%.
For `CC1=CC(=O)CC(C)(C)C1` [isophorone], the “% Activity” value [1] was 1%.
For `CC(=O)CC(C)C` [4-methyl-2-pentanone], the “% Activity” value [1] was 10%.
With `CC(=O)c1ccc(Cl)cc1` [p-chloroacetophenone] the “% Activity” value [1] was 5%.
With `COc1ccc(C(C)=O)cc1OC` [3,4-dimethoxyacetophenone] the “% Activity” value [1] was 46%.
In the case of `CC12CCC(C(=O)C1=O)C2(C)C` (stereo not drawn) [camphorquinone], the “% Activity” value [1] is reported as 33%.
In the case of `O=C(/C=C/c1ccccc1)c1ccccc1` [trans-calcone], the “% Activity” value [1] is reported as 22%.
For `O=C(CCl)c1cccc(Cl)c1` [2-chloro-1-(3′-chlorophenyl)ethanone], the “% Activity” value [1] was 100%.
In the case of `CCCCCC=O` [n-hexylaldehyde], the “% Activity” value [1] is reported as 10%.
With `O=Cc1ccc([N+](=O)[O-])cc1` [p-nitrobenzaldhyde] the “% Activity” value [1] was 162%.
`CCCC(=O)c1ccccc1` [n-butyrophenone] was tested, and the “% Activity” value [1] was 8%.
`CCCCCCCCOC(=O)CC(=O)CCl` [n-octyl 4-chloroacetoacetate] was tested, and the “% Activity” value [1] was 72%.
For `CC(=O)c1ccc(F)cc1` [4-fluoroacetophenone], the “% Activity” value [1] was 30%.
For `CC(=O)C(C)=O` [diacetyl], the “% Activity” value [1] was 4%.
In the case of `CC(=O)CCO` [4-hydroxy-2-butanone], the “% Activity” value [1] is reported as 11%.
For `CCOC(=O)CC(C)=O` [ethyl acetoacetate], the “% Activity” value [1] was 35%.
With `CCOC(=O)CC(=O)CCl` [ethyl 4-chloroacetoacetate] the “% Activity” value [1] was 12%.
With `CC(=O)CC(=O)OC(C)(C)C` [tert-butyl acetoacetate] the “% Activity” value [1] was 1%.
`CCOC(=O)C(Cl)C(C)=O` (stereo not drawn) [ethyl 2-chloroacetoacetate] was tested, and the “% Activity” value [1] was 111%.
With `O=Cc1ccccc1Cl` [o-chlorobenzaldehyde] the “% Activity” value [1] was 24%.
In the case of `O=C(CO)c1ccccc1` [2-hydroxyacetophenone], the “% Activity” value [1] is reported as 34%.
In the case of `O=C1CCCC1` [cyclopentanone], the “% Activity” value [1] is reported as 9%.
In the case of `CCCC=O` [n-butylaldhyde], the “% Activity” value [1] is reported as 20%.
With `O=Cc1ccccc1` [benzaldehyde] the “% Activity” value [1] was 25%.
`O=Cc1cccc(Cl)c1` [m-chlorobenzaldehyde] was tested, and the “% Activity” value [1] was 45%.
For `CCOC(=O)C(Cl)C(=O)c1ccccc1` (stereo not drawn) [ethyl 2-chloro-3-oxo-3-phenpropionate, ethyl 2-chloro-3-oxo-3-phen propionate], the “% Activity” value (pH 6.5) was 34%.
For `COC(=O)C(C)=O` [methyl pyrucvate], the “% Activity” value [1] was 208%.
In the case of `CCC(C)=O` [2-butanone], the “% Activity” value [1] is reported as 10%.
`O=Cc1ccncc1` [pyridine-4-aldehyde] was tested, and the “% Activity” value [1] was 55%.
With `CC(=O)C1CC1` [cyclopropyl methyl ketone] the “% Activity” value [1] was 3%.
For `O=C1CCN(Cc2ccccc2)C1` [1-benyl-3-pyrolidinone], the “% Activity” value [1] was 4%.
For `O=Cc1ccccc1[N+](=O)[O-]` [o-nitrobenza1dehyde], the “% Activity” value [1] was 31%.
In the case of `CC(=O)CC(=O)OCc1ccccc1` [benzyl acetoacetate], the “% Activity” value [1] is reported as 30%.
With `O=C(c1ccccc1)C(F)(F)F` [α,α,α-trifluoroacetophenon] the “% Activity” value [1] was 83%.
For `CC(C)=O` [acetone], the “% Activity” value [1] was 11%.
In the case of `O=C(O)CC(=O)C(=O)O` [oxalacetic acid], the “% Activity” value [1] is reported as 24%.
For `CCCCCC(C)=O` [2-heptanone], the “% Activity” value [1] was 11%.
